According to patent US12582653B2, “Method for treating idiopathic pulmonary fibrosis” (BEIJING TIDE PHARMACEUTICAL CO., LTD., priority 2020, dated 2026):

Experiments:
[1] = tested on: BLM-induced mouse IPF model; assay: BLM-induced mouse IPF model (Example 2); type: in vivo; conditions: for up-regulation of TIMP-1 mRNA expression in the lung tissue induced by bleomycin / up-regulation of COL1A1 mRNA expression in the lung tissue induced by bleomycin: real-time fluorescent quantitative PCR, β-actin reference; for up-regulation of TIMP-1 mRNA expression in the lung tissue induced by bleomycin: FIG. 5A; for up-regulation of COL1A1 mRNA expression in the lung tissue induced by bleomycin: FIG. 5B
Experimental: 60 C57BL/6 mice (purchased from SLAC, Shanghai) were adaptively fed for 1 week, and 50 animals were randomly selected. 3 mg/kg of bleomycin (BLM, purchased from SIGMA, #SIGMA-P9564) was administered through intratracheal (IT) injection to the mice to establish the IPF animal model. The remaining 10 animals were injected with physiological saline at a volume same as the injected BLM, and served as the normal group (N=10). The day of the injection of bleomycin was set as day 0 (DO); on day 6, the animals were randomly divided into 4 groups according to body weight: vehicle group (N=14), compound 007 administration group (N=12), compound 128 administration group (N=12), and positive control pirfenidone (purchased from SIGMA, #SIGMA-P2116) administration group (N=12).
The animals in each group were administered on days 8-21: the animals in the normal group and vehicle group were intragastrically administered with vehicle 1 (vehicle 1: 20% PEG 400+5% Tween 80+75% ddH2O), the animals in the compound 007 administration group were intragastrically administered with compound 007 (formulated with vehicle 1), the animals in the compound 128 administration group were intragastrically administered with compound 128 (formulated with vehicle 1), and the animals in the Pirfenidone administration group were intragastrically administered with pirfenidone (vehicle 2: 0.2% Methyl cellulose+0.5% Tween 80+99.3% ddH2O).
The body weight and its changes were recorded daily (the calculation formula for the body weight change on day 21: Body weight change on day 21=Body weight on day 21—Body weight on day 0), and the results are shown in FIGS. 1A and 1B.
The animals were euthanized 2 hours after the administration on day 21, and the alveolar lavage fluid was collected for white blood cell (WBC) counting. According to FIG. 3, there was no significant difference in the total white blood cell count in the alveolar lavage fluid of the animals in each administration group.
The left lung of the animals was fixed for histopathological examination, and the Ashcroft score of lung injury was performed by Masson Trichome staining. The scoring standard is as reported in Ashcroft T et al., Journal of clinical pathology, 1988. After 100 times magnification, each successive field was scored (ranging from 0 (normal lung)) to 8 (total fibrous obliteration within the field).
The mRNA levels of lung tissue fibrosis-associated protein collagen 1A1 (COL1A1) and tissue inhibitor of metal matrix protein 1 (TIMP-1) in the lung tissue after the administration was detected by a real-time fluorescent quantitative PCR method. Specifically, the lung tissue fragments were transferred to a centrifuge tube containing 1 mL of TRIzol reagent (Invitrogen, catalog No. 15596018). The lung tissue was ground at low temperature by a tissue grinder. Total RNA in cells was extracted. TransScript All-in-One First-Strand cDNA Synthesis SuperMix for qPCR (One-Step gDNA Removal) (TransGen, catalog No. AT341-02) kit was used for reverse transcription synthesis of cDNA. The mRNA expression changes of COL1A1 and TIMP-1 in the lung tissue was detected by a fluorescence quantitative PCR method.
In the real-time fluorescent quantitative PCR method, β-actin gene was used as the internal reference gene to normalize the data. All primer sequences were from the PrimerBank website, ID No.: 34328108a1 (COL1A1 primer), 6755795a1 (TIMP-1 primer) and 6671509a1 (β-actin primer). All of the 3 primers were synthesized by Invitrogen.

[2] = tested on: BLM-induced mouse IPF model; assay: BLM-induced mouse IPF model, different doses (Example 3); type: in vivo, C57BL/6J mice
Experimental: After adaptive feeding, C57BL/6J mice were randomly divided into 2 groups according to body weight: in one group, 15 animals were administered with 50 μL physiological saline through intratracheal injection; and in another group, 90 animals were administered with 50 μL bleomycin (2.5 mg/kg) through intratracheal injection to establish the IPF model. On Day 7 after the establishment of the animal model, animals were randomly grouped according to the weight change (the difference between the weight on Day 7 after the establishment of the model and the day when the model was established). Drugs were administered for 14 consecutive days from the eighth day after the establishment of the animal model. […] The bronchoalveolar lavage fluid (BALF) was collected for white blood cell count. The left lung of the animals was fixed for preparing histopathological slide. H&E and Masson Trichome staining were performed to score the degree of lung injury and fibrosis. Pulmonary fibrosis scoring standard was according to “Standardized quantification of pulmonary fibrosis in histological samples”; lung tissue injury grade score is 0-16, mainly evaluated from four aspects including inflammatory cell infiltration (0-4), hemorrhage (0-4), interstitial and alveolar edema (0-4) and alveolar septum thickness (0-4). A higher score indicate a higher degree of lung tissue injury.

Row | SMILES | survival rate of the animals at the end of the test ([1]; 100 mg/kg orally once a day, 14 days (days 8-21), FIG. 2) | collagen accumulation in lung and degree of lung fibrosis (Ashcroft score, Masson Trichome staining) ([1]; 100 mg/kg orally once a day, 14 days, FIGS. 4A and 4B) | therapeutic effect on lung fibrosis compared with pirfenidone and compound 128 ([1]; 007 and 128 at 100 mg/kg once a day, pirfenidone 90 mg/kg twice a day, FIGS. 4A and 4B) | up-regulation of TIMP-1 mRNA expression in the lung tissue induced by bleomycin [1] | up-regulation of COL1A1 mRNA expression in the lung tissue induced by bleomycin [1] | therapeutic effects compared with pirfenidone and nintedanib ([2]; 30 mpk orally once a day, pirfenidone 90 mg/kg twice a day, nintedanib 30 mg/kg once a day) | therapeutic effects compared with pirfenidone and nintedanib ([2]; 100 mpk orally once a day, pirfenidone 90 mg/kg twice a day, nintedanib 30 mg/kg once a day) | lung injury and fibrosis degree improvements compared with pirfenidone and nintedanib ([2]; 300 mpk orally once a day, pirfenidone 90 mg/kg twice a day, nintedanib 30 mg/kg once a day) | lung injury (H&E score 0-16) ([2]; compared with the model group, FIGS. 7A and 7B) | fibrosis degree (Masson Trichome score) ([2]; compared with the model group, FIGS. 8A and 8B) | infiltration of white blood cells in the lung (BALF white blood cell count) ([2]; compared with the model group, orally once a day, 14 days, FIG. 6)
1 | Cn1c(C(=O)N2CC(F)(F)C2)cc2ccc(-c3nccc(Nc4ccc(-c5cn[nH]c5)cc4)n3)cc21 [Compound 007] | significantly higher | significantly reduced | significantly better than that of pirfenidone and compound 128 | significantly inhibited | significantly inhibited | equivalent to those of pirfenidone and nintedanib | equivalent to those of pirfenidone and nintedanib | superior to pirfenidone and nintedanib | significantly improved | significantly improved | significantly reduce
2 | Cc1ccc(=O)n(-c2ccccc2)c1 [Pirfenidone, reference compound] |  |  |  | moderate inhibitory effect without statistic difference | significantly inhibited |  |  |  |  |  | 
